Patent publication US20200390100A1, “SUBSTITUTED N-HETEROCYCLYL- AND N-HETEROARYL-TETRAHYDROPYRIMIDINONES AND THE SALTS THEREOF, AND THE USE OF SAME AS HERBICIDAL ACTIVE SUBSTANCES” (Bayer Aktiengesellschaft, priority 2017, published 2020)

How the values were obtained:
Type in all cases: in vivo
Digitaria sanguinalis = assay: Pre-emergence herbicidal action, greenhouse, 320 g/ha; settings: application rate 320 g/ha, Table B9
Source text: (§1) Seeds of monocotyledonous and dicotyledonous weed plants and crop plants were placed in plastic or organic planting pots and covered with soil. The compounds of the invention, formulated in the form of wettable powders (WP) or as emulsion concentrates (EC), were then applied to the surface of the covering soil as aqueous suspension or emulsion with addition of 0.5% additive at a water application rate equivalent to […]. After the treatment, the pots were placed in a greenhouse and kept under good growth conditions for the test plants. After about 3 weeks, the effect of the preparations is scored visually in comparison with untreated controls as percentages. For example, 100% activity=the plants have died, 0% activity=like control plants. Tables B1 to B14 below show the effects of selected compounds of the general formula (I) according to Tables I.1 to I.150 on various harmful plants and at an application rate corresponding to 320 g/ha, which were obtained by the experimental procedure mentioned above.

Amaranthus retroflexus [1] = assay: as above; settings: application rate 320 g/ha, scored visually after about 3 weeks vs untreated controls
Source text: as §1

Polygonum convolvulus = assay: as above; settings: application rate 320 g/ha, scored visually after about 3 weeks vs untreated controls
Source text: as §1

Viola tricolor = assay: as above; settings: application rate 320 g/ha, Table B8
Source text: as §1

Setaria viridis = assay: as above; settings: application rate 320 g/ha, Table B11
Source text: as §1

Hordeum murinum = assay: as above; settings: application rate 320 g/ha, Table B14
Source text: as §1

Matricaria inodora [2] = assay: as above; settings: application rate 320 g/ha, scored visually after about 3 weeks vs untreated controls
Source text: as §1

Stellaria media [3] = assay: as above; settings: application rate 320 g/ha, scored visually after about 3 weeks vs untreated controls
Source text: as §1

Alopecurus myosuroides = assay: as above; settings: application rate 320 g/ha, scored visually after about 3 weeks vs untreated controls
Source text: as §1

Abutilon theophrasti [4] = assay: as above; settings: application rate 320 g/ha, scored visually after about 3 weeks vs untreated controls
Source text: as §1

Pharbitis purpurea = assay: as above; settings: application rate 320 g/ha, Table B12
Source text: as §1

Avena fatua = assay: as above; settings: application rate 320 g/ha, scored visually after about 3 weeks vs untreated controls
Source text: as §1

Amaranthus retroflexus [5] = assay: Herbicidal pre-emergence action (Part 2), 1280 g/ha; settings: application rate 1280 g/ha, scored visually after about 3 weeks, Table D6
Source text: (§2) Seeds of mono- and dicotyledonous weed plants were placed in plastic pots in sandy loam soil (doubly sown with in each case one species of mono- or dicotyledonous weed plants per pot) and covered with soil. The compounds of the invention, formulated in the form of wettable powders (WP) or as emulsion concentrates (EC), were then applied onto the surface of the covering soil as aqueous suspension or emulsion with addition of 0.5% additive at a water application rate of 600 liters per hectare (converted). After the treatment, the pots were placed in a greenhouse and kept under good growth conditions for the test plants. After about 3 weeks, the effect of the preparations was scored visually in comparison with untreated controls as percentages. For example, 100% activity=the plants have died, 0% activity=like control plants. Tables D1 to D8 below show the effects of selected compounds of the general formula (I) according to Tables 1.1 to 1.150 on various harmful plants and at an application rate corresponding to 1280 g/ha, which were obtained by the experimental procedure mentioned above.

Matricaria inodora [6] = assay: as above; settings: application rate 1280 g/ha, scored visually after about 3 weeks, Table D7
Source text: as §2

Stellaria media [7] = assay: as above; settings: application rate 1280 g/ha, scored visually after about 3 weeks, Table D8
Source text: as §2

Amaranthus retroflexus [8] = assay: Herbicidal post-emergence action (Part 2), 1280 g/ha; settings: application rate 1280 g/ha, rated visually after about 3 weeks, Table C5
Procedure: (§3) Seeds of mono- and dicotyledonous weed plants were placed in plastic pots in sandy loam soil (doubly sown with in each case one species of mono- or dicotyledonous weed plants per pot), covered with soil and cultivated in a greenhouse under controlled growth conditions. 2 to 3 weeks after sowing, the test plants were treated at the one-leaf stage. The compounds of the invention, formulated in the form of wettable powders (WP) or as emulsion concentrates (EC), were applied onto the green parts of the plants as aqueous suspension or emulsion with addition of 0.5% additive at a water application rate of 600 liters per hectare (converted). After the test plants had been kept in the greenhouse under optimum growth conditions for about 3 weeks, the activity of the preparations was rated visually in comparison to untreated controls. For example, 100% activity=the plants have died, 0% activity=like control plants. Tables C1 to C7 below show the effects of selected compounds of the general formula (I) according to Tables 1.1 to 1.150 on various harmful plants and at an application rate corresponding to 1280 g/ha, which were obtained by the experimental procedure mentioned above.

Stellaria media [9] = assay: as above; settings: application rate 1280 g/ha, rated visually after about 3 weeks, Table C7
Procedure: as §3

Poa annua = assay: Herbicidal pre-emergence action (Part 2), 1280 g/ha; settings: application rate 1280 g/ha, scored visually after about 3 weeks, Table D3
Source text: as §2

Abutilon theophrasti [10] = assay: as above; settings: application rate 1280 g/ha, scored visually after about 3 weeks, Table D5
Source text: as §2

Matricaria inodora [11] = assay: Herbicidal post-emergence action (Part 2), 1280 g/ha; settings: application rate 1280 g/ha, rated visually after about 3 weeks, Table C6
Procedure: as §3

Echinochloa crus-galli = assay: Herbicidal pre-emergence action (Part 2), 1280 g/ha; settings: application rate 1280 g/ha, scored visually after about 3 weeks, Table D1
Source text: as §2

Compound	Amaranthus retroflexus (efficacy in %) (Amaranthus retroflexus [1]) [%]	Polygonum convolvulus (efficacy in %) (Polygonum convolvulus) [%]	Viola tricolor (efficacy in %) (Viola tricolor) [%]	Stellaria media (efficacy in %) (Stellaria media [3]) [%]	Amaranthus retroflexus (Amaranthus retroflexus [5]) [%]	Matricaria inodora (Matricaria inodora [6]) [%]	Stellaria media (Stellaria media [7]) [%]	Amaranthus retroflexus (Amaranthus retroflexus [8]) [%]	Stellaria media (Stellaria media [9]) [%]	Poa Annua (Poa annua) [%]	further results
Cc1c(N2C(=O)N(C)CCC2O)noc1C(C)(C)C (stereo not shown) [I.1-177]	90	100	90								Digitaria sanguinalis (efficacy in %) (Digitaria sanguinalis): 100%; Setaria viridis (efficacy in %) (Setaria viridis): 90%
C=CCC(C)(C)c1cc(N2C(=O)N(C)CCC2O)no1 (stereo not shown) [I.1-199]	100	90	100	100							Hordeum murinum (efficacy in %) (Hordeum murinum): 80%; Matricaria inodora (efficacy in %) (Matricaria inodora [2]): 100%; Alopecurus myosuroides (efficacy in %) (Alopecurus myosuroides): 90%; Abutilon theophrasti (efficacy in %) (Abutilon theophrasti [4]): 100%
COCC(C)(C)c1cc(N2C(=O)N(C)CCC2O)no1 (stereo not shown) [I.1-200]			80	80							Pharbitis purpurea (efficacy in %) (Pharbitis purpurea): 100%; Matricaria inodora (efficacy in %) (Matricaria inodora [2]): 90%
CN1CCC(O)N(c2noc(C(C)(C)C)c2F)C1=O (stereo not shown) [I.1-206]	90	90	100	100							Digitaria sanguinalis (efficacy in %) (Digitaria sanguinalis): 100%; Hordeum murinum (efficacy in %) (Hordeum murinum): 80%; Pharbitis purpurea (efficacy in %) (Pharbitis purpurea): 80%; Matricaria inodora (efficacy in %) (Matricaria inodora [2]): 100%; Avena fatua (efficacy in %) (Avena fatua): 80%; Alopecurus myosuroides (efficacy in %) (Alopecurus myosuroides): 80%; Abutilon theophrasti (efficacy in %) (Abutilon theophrasti [4]): 90%; Setaria viridis (efficacy in %) (Setaria viridis): 90%
CN1CCC(O)N(c2noc(C(C)(C)C)c2Br)C1=O (stereo not shown) [I.1-207]	90	100	100	100							Digitaria sanguinalis (efficacy in %) (Digitaria sanguinalis): 100%; Pharbitis purpurea (efficacy in %) (Pharbitis purpurea): 100%; Avena fatua (efficacy in %) (Avena fatua): 90%; Setaria viridis (efficacy in %) (Setaria viridis): 100%
CN1CCC(O)N(c2cc(C(C)(C)F)ncn2)C1=O (stereo not shown) [I.1-503]			100								Matricaria inodora (efficacy in %) (Matricaria inodora [2]): 100%; Avena fatua (efficacy in %) (Avena fatua): 100%
CN1CCC(O)N(C2=NOC(C)(C)C2)C1=O (stereo not shown) [I.1-709]		100		100							Digitaria sanguinalis (efficacy in %) (Digitaria sanguinalis): 100%; Alopecurus myosuroides (efficacy in %) (Alopecurus myosuroides): 100%
CC(=O)OC1CCN(C)C(=O)N1c1cc(C(F)(F)F)c(Cl)cn1 (stereo not shown) [I.2-451]					100	90	100	100	100		
CCC(=O)OC1CCN(C)C(=O)N1c1cc(C(C)(C)C)no1 (stereo not shown) [I.3-290, 3-(3-tert-Butyl-1,2-oxazol-5-yl)-1-methyl-2-oxohexahydropyrimidin-4-yl Propionate]					100	100	100	100	100	100	Abutilon theophrasti (Abutilon theophrasti [10]): 100%; Matricaria inodora (Matricaria inodora [11]): 90%
CCC(=O)OC1CCN(C)C(=O)N1c1cc(C(F)(F)F)c(Cl)cn1 (stereo not shown) [I.3-451]					100	90	100	100	100	90	Echinochloa crus-galli (Echinochloa crus-galli): 100%
CCC(=O)OC1CCN(C)C(=O)N1c1cc(C(F)(F)F)c(Br)cn1 (stereo not shown) [I.3-464]	90	90	100	100							Setaria viridis (efficacy in %) (Setaria viridis): 90%
CCCC(=O)OC1CCN(C)C(=O)N1c1cc(C(C)(C)C)no1 (stereo not shown) [I.4-290]					100	90	100			90	Abutilon theophrasti (Abutilon theophrasti [10]): 100%
CCCC(=O)OC1CCN(C)C(=O)N1c1cc(C(F)(F)F)ccn1 (stereo not shown) [I.4-449]					100	100	100	100	90	90	
CCCC(=O)OC1CCN(C)C(=O)N1c1cc(C(F)(F)F)c(Cl)cn1 (stereo not shown) [I.4-451]					100		100	100	100		
CC(C)CC(=O)OC1CCN(C)C(=O)N1c1cc(C(F)(F)F)ccn1 (stereo not shown) [I.7-449]					100	100	100	100		90	Matricaria inodora (Matricaria inodora [11]): 90%
CC1CC(O)N(c2cc(C(F)(F)F)ccn2)C(=O)N1C (stereo not shown) [I.41-449]	100		100	100							Matricaria inodora (efficacy in %) (Matricaria inodora [2]): 100%; Alopecurus myosuroides (efficacy in %) (Alopecurus myosuroides): 90%
CCCC(=O)OC1CC(C)N(C)C(=O)N1c1cc(C(F)(F)F)ccn1 (stereo not shown) [I.44-449]					100	90	100		90		Echinochloa crus-galli (Echinochloa crus-galli): 100%
CCC(=O)OC1N(c2cc(C(C)(C)C)on2)C(=O)N(C)CC1(C)C (stereo not shown) [I.63-162]					100	90	100	100	100	100	Abutilon theophrasti (Abutilon theophrasti [10]): 100%; Matricaria inodora (Matricaria inodora [11]): 100%
CON1CCC(O)N(c2cc(C(C)(C)C)on2)C1=O (stereo not shown) [I.91-162]	90	100									Digitaria sanguinalis (efficacy in %) (Digitaria sanguinalis): 100%; Alopecurus myosuroides (efficacy in %) (Alopecurus myosuroides): 80%
